Key:
SH-SY5Y cells [1] = test: Dose-response screening for non-toxic concentrations, MTT reduction assay; format: cell-based, human; conditions: 10 µM to 40 µM, 25 h
Method: The neuroprotective effect of these new multi-target drugs designed for AD was evaluated using SH-SY5Y cells treated with Aβ1-42 peptides or ascorbate/iron. For each compound we performed a dose-response curve to select a non-toxic concentration (Figure 7).
Figure 7. Dose-response screening to select non-toxic concentrations of TAC-BF hybrids. Cells were treated with varying concentration of TAC-BF conjugates (from 10 μM to 40 μM) for 25 h and cell viability was determined using the MTT reduction assay.
SH-SY5Y human neuroblastoma cell line (ATCC-CRL-2266) is grown in Dulbecco’s modified Eagle’s medium (DMEM), and were obtained from Gibco-Invitrogen (Life Technologies Ltd, UK) with 10% heat inactivated foetal calf serum, containing 50 U/mL penicillin and 50 µg/mL streptomycin, under a humidified atmosphere of 95% air- 5% CO2 at 37 °C. Cells were plated at 0.12 × 10^6 cells/mL for cell viability assay. The tested compounds (18, 19, 20, 21, 23 and 24) were dissolved in DMSO at a concentration of 50 mM and aliquots were stored at −20 °C. We performed a dose-response screening (from 10 µM to 40 µM) in order to choose the highest non-toxic concentration. As a result we selected: 20 µM final concentrations for compounds 18, 19, 20 and 23; 20 µM final concentration for compound 19; 35 µM final concentration for compounds 21 and 24. […] The compounds were added to the cell media 1 h before the incubation with Aβ1-42 or L-ascorbic acid/ferrous sulphate. Aβ1-42 or L-ascorbic acid/ferrous sulphate where incubated alone or with the compound for an additional 24 h. Aβ1-42 was prepared as 276.9 µM stock in sterile water and added to the medium at 2.5 µM final concentration. Ferrous sulphate was freshly prepared as 0.36 M stock in water and added to the medium at 500 µM final concentration. L-Ascorbic Acid was freshly prepared as 80 mM stock in water and added to the medium at 5 mM final concentration. Aβ1-42 was purchased from Bachem (Torrance, CA, USA) and ferrous sulphate and L-ascorbic acid from Sigma Chemical Co (St. Louis, MO, USA).
Cell viability was determined by the MTT (3–(4,5-dimethylthiazol-2-yl)-2,5-diphenyltetrazolium bromide) reduction test. In viable cells, the enzyme succinate dehydrogenase metabolises MTT into a formazan that absorbs light at 570 nm. Following the cell treatment protocol, the medium was aspirated and 0.5 mL MTT (0.5 mg/mL) was added to each well. The plate was then incubated at 37 °C for 1 h 30 min protected from light. At the end of the incubation period, the formazan precipitates were solubilised with 0.5 mL of acidic isopropanol (0.04 M HCl/isopropanol). The absorbance was measured at 570 nm[51]. Cell reduction ability was expressed as a percentage of untreated control cells.

SH-SY5Y cells [2] = test: Neuroprotection from Aβ42-induced toxicity, MTT reduction assay; format: cell-based, human; conditions: Aβ42 2.5 μM 24 h; 1 h pre-incubation + 24 h co-incubation; 18, 19, 20, 23 at 20 µM; 21, 24 at 35 µM
Method: Figure 8. Neuroprotective effect of TAC-BF hybrids from Aβ42-induced toxicity on SH-SY5Y cells. Cells were treated with Aβ42 peptide (2.5 μM) for 24 h in the absence or in the presence of the compounds (1 h pre-incubation + 24 h co-incubation). Evaluation of cell viability was performed using the MTT reduction assay. […] (compounds: 18, 19, 20 and 23 – 20 µM; 21, 24 – 35 µM).
(§1) SH-SY5Y human neuroblastoma cell line (ATCC-CRL-2266) is grown in Dulbecco’s modified Eagle’s medium (DMEM), and were obtained from Gibco-Invitrogen (Life Technologies Ltd, UK) with 10% heat inactivated foetal calf serum, containing 50 U/mL penicillin and 50 µg/mL streptomycin, under a humidified atmosphere of 95% air- 5% CO2 at 37 °C. Cells were plated at 0.12 × 10^6 cells/mL for cell viability assay. The tested compounds (18, 19, 20, 21, 23 and 24) were dissolved in DMSO at a concentration of 50 mM and aliquots were stored at −20 °C. We performed a dose-response screening (from 10 µM to 40 µM) in order to choose the highest non-toxic concentration. […]
(§2) Cell viability was determined by the MTT (3–(4,5-dimethylthiazol-2-yl)-2,5-diphenyltetrazolium bromide) reduction test. […] The absorbance was measured at 570 nm[51]. Cell reduction ability was expressed as a percentage of untreated control cells.

SH-SY5Y cells [3] = test: Neuroprotection against ascorbate/iron (Asc/Fe) toxicity, MTT reduction assay; format: cell-based, human; conditions: Asc/Fe 5 mM/500 μM 24 h after 1 h compound; 18, 19, 20, 23 at 20 µM; 21, 24 at 35 µM
Method: Figure 9. Neuroprotective effect of TAC-BF conjugates against L-Ascorbic Acid (AscH(-))/Ferrous Sulphate (Fe) toxicity on SH-SY5Y cells. Cells were treated with Asc/Fe (5 mM/500 μM, respectively) for 24 h, after treatment for 1 h in the absence or in the presence of the compounds. Evaluation of cell viability was performed by using MTT reduction assay. […] (compounds: 18, 19, 20 and 23 – 20 µM; 21, 24 – 35 µM).
as §1, §2

[4] = Fe(III) complexation, UV-vis spectrophotometric titration; format: physicochemical; conditions: 25% w/w DMSO/water
Method: It has been largely accepted that chelators interfere both in metal-induced Aβ aggregation/neurotoxicity and on metal homeostasis of AD brains. Among the hybrids with BF hydroxyl substituent, compound 21 was chosen as a representative model to analyse the concomitant chelating capacity towards the redox-active (Fe(III), Cu(II)) and Aβ-binding (Cu(II)) metal ions. Due to solubility reasons, these studies were performed in a mixed 25% (w/w) DMSO/water medium, In fact, DMSO was chosen because it is a widely used and well tolerated solvent in biological and cellular studies, the amounts of ligand (<7 µM) and DMSO (<1%) employed in culture media being quite low with concomitant no alterations observed in cells.
The chelating ability of compound 21 towards the two metal ions under study (Fe(III) and Cu(II)) was evaluated on the basis of the global formation constants of the complexes, obtained by treatment of the UV-vis spectrophotometric data (see Table 1).
For the metal complexation studies, the aqueous iron (FeCl3, 0.0177 M) and copper (CuCl2, 0.015 M) stock solutions were prepared from 1000 ppm standards (Titrisol) and their metal content was evaluated by atomic absorption. To prevent hydrolysis, the iron stock solution was prepared in excess of acid chloride and its exact concentration in HCl determined by the usual standard-addition method using 0.1 M HCl (Titrisol). The 0.1 M HCl solution, used in spectrophotometric titrations, was prepared from a Titrisol ampoule while the titrant was from carbonate free commercial concentrate (Titrisol, KOH 0.1 M ampoules). The KOH solution was standardised by titration with a solution of potassium hydrogen phthalate and was discarded whenever the percentage of carbonate, determined by Gran’s method, was greater than 0.5% of the total amount of base.
The electronic spectra and the AChE inhibition assays were performed in a 1-cm path length quartz cell with a Perkin Elmer Lambda 35 spectrophotometer equipped with a temperature programmer PTP1 + 1 Peltier System (T = 25.0 ± 0.1 °C). The enzyme AChE 500 U, extracted from Electrophorus electricus (electric eel), was purchased from Sigma-Aldrich.

SMILES	highest non-toxic concentration selected from dose-response screening (SH-SY5Y cells [1]) [µM]	Neuroprotective effect from Aβ42-induced toxicity (cell viability) (SH-SY5Y cells [2])	Neuroprotective effect against Asc/Fe toxicity (cell viability) (SH-SY5Y cells [3])	log βFemHhLl, species (1–22) ([4]; T = 25.0 °C, I = 0.1 M KCl)	log βFemHhLl, species (103) ([4]; T = 25.0 °C, I = 0.1 M KCl)	log βFemHhLl, species (111) ([4]; T = 25.0 °C, I = 0.1 M KCl)	log βFemHhLl, species (112) ([4]; T = 25.0 °C, I = 0.1 M KCl)	pM (pFe) = −log[M] ([4]; pH 7.4, CL/CM = 10, CM = 10^−6 M)
COc1cccc2cc(C(=O)NCCCNc3c4c(nc5cc(Cl)ccc35)CCCC4)oc12 [Compound 19, N-(3-((6-chloro-1,2,3,4-tetrahydroacridin-9-yl)amino)propyl)-7-methoxybenzofuran-2-carboxamide]	20	prevented that Aβ-induced cell toxicity	appeared to best achieve cell protection from Asc/Fe-induce oxidative stress	–	–	–	–	–
COc1cccc2cc(C(=O)NCCCCNc3c4c(nc5cc(Cl)ccc35)CCCC4)oc12 [Compound 20, N-(4-((6-chloro-1,2,3,4-tetrahydroacridin-9-yl)amino)butyl)-7-methoxybenzofuran-2-carboxamide]	20	–	–	–	–	–	–	–
O=C(NCCCNc1c2c(nc3ccccc13)CCCC2)c1cc2cccc(O)c2o1 [Compound 21, 7-Hydroxy-N-(3-((1,2,3,4-tetrahydroacridin-9-yl)amino)propyl)benzofuran-2-carboxamide]	35	–	lowest capacity for in cell radical scavenging	12.21(8)	36.95(7)	22.90(6)	38.37(6)	22.2
O=C(NCCCNc1c2c(nc3cc(Cl)ccc13)CCCC2)c1cc2cccc(O)c2o1 [Compound 23, N-(3-((6-chloro-1,2,3,4-tetrahydroacridin-9-yl)amino)propyl)-7-hydroxybenzofuran-2-carboxamide]	20	prevented that Aβ-induced cell toxicity	–	–	–	–	–	–
O=C(NCCCCNc1c2c(nc3cc(Cl)ccc13)CCCC2)c1cc2cccc(O)c2o1 [Compound 24, N-(4-((6-chloro-1,2,3,4-tetrahydroacridin-9-yl)amino)butyl)-7-hydroxybenzofuran-2-carboxamide]	35	–	–	–	–	–	–	–
